# In BindingDB's records for doi:10.1016/0922-4106(95)90043-8 (Uppsala, 1995):
# Non-standard residues stand in square brackets, D forms with d. Residues, ends and D or L forms follow the SMILES beside them. Met(O2) = CS(=O)(=O)CC[C@H](N)C(=O)O
# Key:
# Melanocortin receptor 5 = Melanocortin receptor 5 (Homo sapiens, UniProt P33032)
# [1] = target: Melanocyte-stimulating hormone receptor (Homo sapiens, UniProt Q01726)
# Melanocortin receptor 3 = Melanocortin receptor 3 (Homo sapiens, UniProt P41968)
# Chain of Melanocortin receptor 3 (P41968 whole entry): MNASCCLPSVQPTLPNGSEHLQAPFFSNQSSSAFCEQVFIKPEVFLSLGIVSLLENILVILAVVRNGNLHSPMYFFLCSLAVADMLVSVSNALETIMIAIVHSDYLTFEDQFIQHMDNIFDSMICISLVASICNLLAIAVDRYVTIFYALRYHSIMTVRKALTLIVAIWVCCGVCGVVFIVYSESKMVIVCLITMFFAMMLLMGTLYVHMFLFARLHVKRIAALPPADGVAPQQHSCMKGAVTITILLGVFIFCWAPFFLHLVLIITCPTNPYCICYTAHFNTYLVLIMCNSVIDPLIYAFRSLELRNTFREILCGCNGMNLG
# Chain of Melanocortin receptor 5 (P33032 whole entry): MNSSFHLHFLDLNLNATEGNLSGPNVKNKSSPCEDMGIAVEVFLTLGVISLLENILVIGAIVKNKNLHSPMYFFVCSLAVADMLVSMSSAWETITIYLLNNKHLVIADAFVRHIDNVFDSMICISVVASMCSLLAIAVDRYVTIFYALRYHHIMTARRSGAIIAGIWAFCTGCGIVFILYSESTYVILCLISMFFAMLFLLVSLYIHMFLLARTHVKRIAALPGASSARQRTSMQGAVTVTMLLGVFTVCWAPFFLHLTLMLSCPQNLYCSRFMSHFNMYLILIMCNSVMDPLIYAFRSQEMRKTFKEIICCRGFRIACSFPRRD
# Chain of Melanocyte-stimulating hormone receptor (Q01726 whole entry): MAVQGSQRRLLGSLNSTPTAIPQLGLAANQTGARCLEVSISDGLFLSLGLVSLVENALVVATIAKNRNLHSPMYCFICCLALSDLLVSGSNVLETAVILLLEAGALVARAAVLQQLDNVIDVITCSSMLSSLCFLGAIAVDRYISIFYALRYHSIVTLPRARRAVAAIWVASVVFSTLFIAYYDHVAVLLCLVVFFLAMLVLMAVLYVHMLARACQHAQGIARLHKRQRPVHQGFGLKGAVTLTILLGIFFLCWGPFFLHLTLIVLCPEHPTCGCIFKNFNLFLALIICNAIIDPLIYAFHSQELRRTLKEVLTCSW
compound,measurement,setting,value
H-SMEVRGW-OH [delta MSH],Ki,Melanocortin receptor 5,> 10000 nM
same,Ki,[1],> 10000 nM
same,Ki,Melanocortin receptor 3,> 10000 nM
CSCC[C@H](N)C(=O)N[C@@H](CCC(=O)O)C(=O)N[C@@H](Cc1cnc[nH]1)C(=O)N[C@@H](Cc1ccccc1)C(=O)N[C@@H](CCCNC(=N)N)C(=O)N[C@@H](Cc1c[nH]c2ccccc12)C(=O)NCC(N)=O [NSC_123787],Ki,Melanocortin receptor 5,> 10000 nM
same,Ki,[1],106 nM
same,Ki,Melanocortin receptor 3,784 nM
CSCC[C@H](NC(=O)[C@H](CO)NC(=O)[C@H](Cc1ccc(O)cc1)NC(=O)[C@@H](N)CO)C(=O)N[C@@H](CCC(=O)O)C(=O)N[C@@H](Cc1cnc[nH]1)C(=O)N[C@@H](Cc1ccccc1)C(=O)N[C@@H](CCCNC(=N)N)C(=O)N[C@@H](Cc1c[nH]c2ccccc12)C(=O)NCC(N)=O [ACTH-(1-10)],Ki,Melanocortin receptor 5,> 10000 nM
same,Ki,Melanocortin receptor 3,145 nM
CS(=O)(=O)CC[C@H](N)C(=O)N[C@@H](CCC(=O)O)C(=O)N[C@@H](Cc1c[nH]cn1)C(=O)N[C@@H](Cc1ccccc1)C(=O)N[C@H](CCCCN)C(=O)N[C@@H](Cc1ccccc1)C(=O)O [CAS_50913-82-1] (H-[Met(O2)]EHF[dK]F-OH),Ki,Melanocortin receptor 5,> 10000 nM
same,Ki,[1],> 10000 nM
same,Ki,Melanocortin receptor 3,> 10000 nM
CSCC[C@H](NC(=O)[C@@H](NC(=O)[C@@H](N)Cc1ccc(O)cc1)C(C)C)C(=O)NCC(=O)N[C@@H](Cc1cnc[nH]1)C(=O)N[C@@H](Cc1ccccc1)C(=O)N[C@@H](CCCN=C(N)N)C(=O)N[C@@H](Cc1c[nH]c2ccccc12)C(=O)N[C@@H](CC(=O)O)C(=O)N[C@@H](CCCN=C(N)N)C(=O)N[C@@H](Cc1ccccc1)C(N)=O [Gamma1-MSH],Ki,[1],2.68 nM
H-SYSMEHFRWGKPVGKKRRPVKVYPNGAEDESAEAFPLEF-OH [ACTH],Ki,Melanocortin receptor 5,> 10000 nM
same,Ki,[1],2.5 nM
same,Ki,Melanocortin receptor 3,86.9 nM
H-YVMGHFRWDRFGRRNGSSSSGVGGAAQ-OH [Gamma3-MSH],Ki,Melanocortin receptor 5,> 10000 nM
same,Ki,[1],1.39 nM
same,Ki,Melanocortin receptor 3,10.9 nM
